EP1862549A2, “Target of RNAIII activating protein (TRAP)” (Balaban, Naomi, priority 1998, dated 2007)

Legend:
S. aureus = conditions: animals treated with RIP; cited from earlier work
TRAP = conditions: wild type early exponential S. aureus cells incubated in PFB with 32P; PBS as control
Method: Wild type early exponential S. aureus cells were incubated for 1 hr in phosphate free buffer (PFB) together with ^32P, with RAP (in PBS) or with PBS only as a control. […] Cells were collected, applied to SDS PAGE, and the gel autoradiographed. The autoradiogram was scanned and the density of the bands determined.
Wild type early exponential S. aureus cells were incubated in PFB with ^32P with either PBS alone, RIP, RAP, or a combination of RIP and RAP. […] The cells were collected, applied to SDS PAGE, the gel autoradiographed, and the relative amounts of TRAP phosphorylation and RNAIII transcription levels determined (Balaban et al. Proc. Natl. Acad. Sci. U.S.A. 92:1619-1623 (1995)). […] The relative levels of TRAP phosphorylation (Fig. 14) and RNAIII transcription (Fig. 15) in the presence of PBS alone (control), RIP, RAP, or RIP and RAP were also determined.

YSPXTNF (SEQ ID NO:3) [RIP]
protection from an S. aureus infection (S. aureus): protected
TRAP phosphorylation (TRAP): inhibited
